The experiment in a line: DPPH (2,2-diphenyl-1-picrylhydrazyl) in vitro antioxidant / radical scavenging test. In kind it is biochemical. To be noted: 517 nm; for Inhibition: radical scavenging inhibition of DPPH, vitamin C as reference. The procedure: A new polyfunctionalized pyridine 6′-(4-bromophenyl)-2′-ethoxy-3,4′-bipyridine-3′-carbonitrile (4) was investigated for its antioxidant activity by 2,2-diphenyl-1-picrylhydrazyl (DPPH) in vitro tests that employ vitamin C as the positive control. The product 4 magnitude estimated the antioxidant potential to vanish the DPPH radical distinctive colors at 517 nm. […] The radical scavenging inhibition was calculated using the following equation: […]
In general terms: The DPPH test is a chemical assay of radical scavenging.

SMILES strings stand for the structures.

As usually defined, the Inhibition is the drop in the measured response relative to a control, in per cent. Low readings indicate a response near the control, high ones a response far below the control.

As to `O=C1O[C@H]([C@@H](O)CO)C(O)=C1O` [vit c, vitamin C, reference compound], the Inhibition turned out to be 74%.
With `CCOc1nc(-c2ccc(Br)cc2)cc(-c2cccnc2)c1C#N` [Product 4, 6′-(4-bromophenyl)-2′-ethoxy-3,4′-bipyridine-3′-carbonitrile], the Inhibition worked out at 48%. The “antioxidant potential compared to vitamin C” value (DPPH in vitro test) is recorded as “high potential as an antioxidant”.

Values taken from patent US11919862B1, “6′-(4-bromophenyl)-2′-ethoxy-3,4′-bipyridine-3′-carbonitrile as an antioxidant” (KING FAISAL UNIVERSITY, priority 2023, dated 2024).
